Columns and labels:
[1] = test system: Aldehyde dehydrogenase, mitochondrial (Mesocricetus auratus); assay: Inhibition of hamster liver aldehyde dehydrogenase ALDH-2; No inhibition uM
[2] = test system: Monoamine oxidase (Mesocricetus auratus); assay: Inhibition of hamster liver mitochondrial monoamine oxidase MAO
[3] = biological target: Aldehyde dehydrogenase, mitochondrial (Mesocricetus auratus); assay: Inhibition of hamster liver aldehyde dehydrogenase ALDH-2
[4] = biological target: Monoamine oxidase (Mesocricetus auratus)

NI [1] | NI [2] | IC50 [4] | Compound | also measured
No inhibition | No inhibition |  | CCOC(=O)CCCCCOc1ccc(-c2coc3cc(OCCCCCC(=O)OCC)ccc3c2=O)cc1 | 
 |  |  | O=c1c(-c2ccc(O)cc2)coc2cc(OCCCBr)ccc12 | IC50 [3]: 0.26 µM
No inhibition | No inhibition |  | CCCCCCOc1ccc(-c2coc3cc(OCCCCCC)ccc3c2=O)cc1 | 
No inhibition | No inhibition |  | COc1cc2ccc(=O)oc2cc1OC [SCOPARONE] | 
 |  | >> 9 uM | CCCCCCC(Oc1ccc2c(=O)c(-c3ccc(O)cc3)coc2c1)C(=O)OCC (stereo not given) | 
No inhibition | No inhibition |  | CCOC(=O)C(C)Oc1ccc(-c2coc3cc(OC(C)C(=O)OCC)ccc3c2=O)cc1 (stereo not given) | 
No inhibition | No inhibition |  | CCCCCCCCCCCCOc1ccc(-c2coc3cc(OCCCCCCCCCCCC)ccc3c2=O)cc1 | 
 |  | 0.2 µM | CC(C)Oc1ccc2c(=O)c(-c3ccc(O)cc3)coc2c1 | 
No inhibition | No inhibition |  | C=CCCCCOc1ccc(-c2coc3cc(OCCCCC=C)ccc3c2=O)cc1 | 
 |  | > 9 µM | O=c1c(-c2ccc(O)cc2)coc2cc(OCCCCCCCCCO)ccc12 | 
 |  |  | O=c1c(-c2ccc(O)cc2)coc2cc(OCCCCCCBr)ccc12 | IC50 [3]: 0.3 µM
 |  | > 9 µM | NCCCCOc1ccc2c(=O)c(-c3ccc(O)cc3)coc2c1 | 
 |  | >> 9 uM | O=C(O)COc1ccc2c(=O)c(-c3ccc(O)cc3)coc2c1 | 
 |  | > 9 µM | CCOC(=O)CCCCOc1ccc2c(=O)c(-c3ccc(O)cc3)coc2c1 | 
 |  | 7 µM | O=C(O)CCCCCOc1ccc2c(=O)cc(-c3ccc(O)cc3)oc2c1 | 
 |  | >> 9 uM | CCCCC(Oc1ccc2c(=O)c(-c3ccc(O)cc3)coc2c1)C(=O)OCC (stereo not given) | 
 |  | > 9 µM | O=c1c(-c2ccc(O)cc2)coc2cc(OCCCCCCO)ccc12 | 
 |  |  | O=c1c(-c2ccc(O)cc2)coc2cc(OCCCCBr)ccc12 | IC50 [3]: 0.27 µM
 |  | >> 9 uM | NCCCCCCOc1ccc2c(=O)c(-c3ccc(O)cc3)coc2c1 | 
 |  | 5 µM | O=C(O)CCCCOc1ccc2c(=O)c(-c3ccc(O)cc3)coc2c1 | 
No inhibition | No inhibition |  | CCOC(=O)CCCCOc1ccc(-c2coc3cc(OCCCCC(=O)OCC)ccc3c2=O)cc1 | 
No inhibition | No inhibition |  | O=c1c(-c2ccc(OCCCCCCCCCO)cc2)coc2cc(OCCCCCCCCCO)ccc12 | 
 |  | 6.5 µM | O=C(O)CCCCCCCOc1ccc2c(=O)c(-c3ccc(O)cc3)coc2c1 | 
No inhibition | No inhibition |  | CC(C)Oc1ccc(-c2coc3cc(OC(C)C)ccc3c2=O)cc1 | 
 |  | 5 µM | C=CCCCCOc1ccc2c(=O)c(-c3ccc(O)cc3)coc2c1 | 
 |  | 5.3 µM | CCOC(=O)CCCCCOc1ccc2c(=O)c(-c3ccc(O)cc3)coc2c1 | 
